The text below walks through data of ChEMBL document CHEMBL5465560, “Selectivity Literature for EUbOPEN Chemogenomic Library” (2024).

SMILES strings stand for the structures.

In test [1] the target is Serine/threonine-protein kinase MRCK beta (Homo sapiens) (UniProt Q9Y5S2). Nature of the test: Selectivity interaction (ProQinase) EUB0000171b CDC42BPB.
Test [2] has as its target Dual specificity protein kinase CLK3 (Homo sapiens, UniProt P49761). To be noted: at 10 µM.
Test [3] deals with Proto-oncogene tyrosine-protein kinase Src (Homo sapiens, UniProt P12931). Nature of the test: Selectivity interaction (KinomeScan (DiscoverX)) EUB0001049a SRC. To be noted: at 1 µM.
Test [4] concerns the target cGMP-inhibited 3',5'-cyclic phosphodiesterase 3A (Homo sapiens, UniProt Q14432). Nature of the test: Selectivity interaction (Panel of non-epigenetic targets (kinases, GPCRs, ion channels, and transporters, Eurofins) ) EUB0000271b PDE3A. To be noted: at 1 µM.
Test [5] addresses T1, Serine/threonine-protein kinase ICK (Homo sapiens) (UniProt Q9UPZ9).
T1 sequence (whole entry): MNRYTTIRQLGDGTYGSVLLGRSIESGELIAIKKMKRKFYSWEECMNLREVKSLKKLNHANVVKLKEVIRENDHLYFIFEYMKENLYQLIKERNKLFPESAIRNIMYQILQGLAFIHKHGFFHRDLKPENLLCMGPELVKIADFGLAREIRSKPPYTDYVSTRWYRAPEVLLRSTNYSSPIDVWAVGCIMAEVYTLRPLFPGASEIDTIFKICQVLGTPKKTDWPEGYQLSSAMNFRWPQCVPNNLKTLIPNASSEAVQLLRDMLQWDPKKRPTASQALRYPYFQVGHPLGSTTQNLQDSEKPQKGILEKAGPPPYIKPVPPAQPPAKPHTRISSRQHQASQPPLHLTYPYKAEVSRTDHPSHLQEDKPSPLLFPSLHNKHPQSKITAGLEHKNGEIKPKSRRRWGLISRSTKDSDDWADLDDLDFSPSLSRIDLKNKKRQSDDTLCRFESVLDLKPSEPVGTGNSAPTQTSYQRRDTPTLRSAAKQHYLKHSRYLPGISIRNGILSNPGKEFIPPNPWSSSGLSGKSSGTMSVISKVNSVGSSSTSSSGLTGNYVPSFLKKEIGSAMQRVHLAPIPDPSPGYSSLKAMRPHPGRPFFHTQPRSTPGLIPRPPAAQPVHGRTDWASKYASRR
The experiment in a line: Selectivity interaction (KinomeScan (DiscoverX)) EUB0000045b ICK.

The target of test [6] is T2, Dual specificity mitogen-activated protein kinase kinase 3 (Homo sapiens) (UniProt P46734).
T2 sequence (whole entry): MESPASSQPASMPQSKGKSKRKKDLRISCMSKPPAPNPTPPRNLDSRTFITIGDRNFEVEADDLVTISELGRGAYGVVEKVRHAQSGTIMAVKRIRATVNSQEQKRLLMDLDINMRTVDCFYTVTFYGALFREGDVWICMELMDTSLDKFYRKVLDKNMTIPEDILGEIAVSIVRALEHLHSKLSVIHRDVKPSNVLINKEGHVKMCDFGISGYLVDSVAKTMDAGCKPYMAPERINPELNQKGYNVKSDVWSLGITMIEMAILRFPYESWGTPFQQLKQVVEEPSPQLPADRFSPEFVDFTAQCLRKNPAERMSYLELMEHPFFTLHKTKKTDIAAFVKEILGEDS
Nature of the test: Selectivity interaction (KinomeScan (DiscoverX)) EUB0000607a MAP2K3. To be noted: at 10 µM.

The target in test [7] is Serine/threonine-protein kinase 10 (Homo sapiens) (UniProt O94804). Nature of the test: Selectivity interaction (ActivX KiNativ screen (kinase selectivity in THP-1 cell lysates)) EUB0000639a STK10. Type of test: subcellular. To be noted: lysate, at 0.2 µM.
Test [8] concerns the target Cyclin-dependent kinase 11B (Homo sapiens) (UniProt P21127). The experiment in a line: Selectivity interaction (KinomeScan (DiscoverX)) EUB0000229b CDK11B. To be noted: at 10 µM.
In test [9] the target is Serine/threonine-protein kinase WNK2 (Homo sapiens) (UniProt Q9Y3S1). Nature of the test: Selectivity interaction (KinomeScan (DiscoverX)) EUB0000229b WNK2. To be noted: at 10 µM.
Test [10] deals with Dual specificity tyrosine-phosphorylation-regulated kinase 1A (Homo sapiens, UniProt Q13627). The experiment in a line: Selectivity interaction (Kinase panel (DSF assay)) EUB0001559a DYRK1A.
In test [11] the target is Serine/threonine-protein kinase pim-2 (Homo sapiens, UniProt Q9P1W9). Nature of the test: Selectivity interaction (Kinase panel (literature)) EUB0001199aCl PIM2. To be noted: at 1 µM.
The target of test [12] is Serine/threonine-protein kinase 38-like (Homo sapiens) (UniProt Q9Y2H1). The experiment in a line: Selectivity interaction (Kinase panel (KiNativ target engagement assay in Jurkat cells)) EUB0001635a STK38L. Type of test: cell-based. To be noted: Selectivity number of off-targets 0.0, Selectivity number of targets 233.0, Source Knowledge https://www.sciencedirect.com/science/article/pii/S2451945619300674?via%3Dihub, at 1 µM.

Chain of Serine/threonine-protein kinase MRCK beta (Homo sapiens) (Q9Y5S2 whole entry): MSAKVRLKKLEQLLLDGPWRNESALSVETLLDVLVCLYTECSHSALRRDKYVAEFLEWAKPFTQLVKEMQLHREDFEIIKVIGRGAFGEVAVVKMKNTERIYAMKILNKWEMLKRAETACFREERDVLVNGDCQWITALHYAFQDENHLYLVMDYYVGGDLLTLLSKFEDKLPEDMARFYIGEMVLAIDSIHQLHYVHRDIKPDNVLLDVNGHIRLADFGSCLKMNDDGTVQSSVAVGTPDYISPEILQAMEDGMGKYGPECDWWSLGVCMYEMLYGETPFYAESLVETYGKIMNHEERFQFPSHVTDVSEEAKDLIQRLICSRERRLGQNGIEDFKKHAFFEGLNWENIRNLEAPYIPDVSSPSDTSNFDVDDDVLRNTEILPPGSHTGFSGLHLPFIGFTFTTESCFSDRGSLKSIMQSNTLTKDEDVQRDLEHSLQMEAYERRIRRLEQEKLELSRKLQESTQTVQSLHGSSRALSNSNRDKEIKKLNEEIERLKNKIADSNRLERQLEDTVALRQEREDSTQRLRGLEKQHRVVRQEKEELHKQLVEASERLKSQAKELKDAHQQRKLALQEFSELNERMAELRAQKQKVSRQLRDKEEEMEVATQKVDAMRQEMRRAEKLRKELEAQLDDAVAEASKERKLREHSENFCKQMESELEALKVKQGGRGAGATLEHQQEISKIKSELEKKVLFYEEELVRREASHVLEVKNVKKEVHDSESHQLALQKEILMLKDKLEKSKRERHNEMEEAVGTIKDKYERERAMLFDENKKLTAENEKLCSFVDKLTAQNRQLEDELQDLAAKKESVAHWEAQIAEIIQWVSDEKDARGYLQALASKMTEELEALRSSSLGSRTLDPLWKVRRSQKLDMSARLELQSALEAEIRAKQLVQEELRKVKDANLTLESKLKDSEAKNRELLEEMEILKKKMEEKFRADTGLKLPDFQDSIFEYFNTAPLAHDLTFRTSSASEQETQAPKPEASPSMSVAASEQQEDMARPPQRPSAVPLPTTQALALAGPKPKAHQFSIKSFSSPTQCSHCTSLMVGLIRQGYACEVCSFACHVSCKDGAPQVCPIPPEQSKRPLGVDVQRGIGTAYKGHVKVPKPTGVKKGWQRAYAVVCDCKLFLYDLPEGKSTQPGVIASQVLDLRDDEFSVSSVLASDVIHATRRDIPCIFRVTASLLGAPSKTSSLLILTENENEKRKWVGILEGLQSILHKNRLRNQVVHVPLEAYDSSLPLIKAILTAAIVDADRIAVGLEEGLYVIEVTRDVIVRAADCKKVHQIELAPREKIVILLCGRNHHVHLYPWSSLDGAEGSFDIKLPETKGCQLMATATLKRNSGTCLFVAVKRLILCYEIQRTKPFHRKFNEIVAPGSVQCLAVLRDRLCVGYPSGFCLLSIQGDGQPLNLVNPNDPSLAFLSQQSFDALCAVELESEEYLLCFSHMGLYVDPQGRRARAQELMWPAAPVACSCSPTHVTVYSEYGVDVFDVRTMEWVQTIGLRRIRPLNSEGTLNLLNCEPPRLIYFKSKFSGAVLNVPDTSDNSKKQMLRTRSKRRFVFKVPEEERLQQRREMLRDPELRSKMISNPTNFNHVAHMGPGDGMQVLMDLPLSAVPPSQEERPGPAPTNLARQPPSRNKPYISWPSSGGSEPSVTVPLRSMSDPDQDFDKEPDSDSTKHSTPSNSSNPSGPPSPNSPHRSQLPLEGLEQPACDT
Chain of Proto-oncogene tyrosine-protein kinase Src (P12931 2-536 limits assumed): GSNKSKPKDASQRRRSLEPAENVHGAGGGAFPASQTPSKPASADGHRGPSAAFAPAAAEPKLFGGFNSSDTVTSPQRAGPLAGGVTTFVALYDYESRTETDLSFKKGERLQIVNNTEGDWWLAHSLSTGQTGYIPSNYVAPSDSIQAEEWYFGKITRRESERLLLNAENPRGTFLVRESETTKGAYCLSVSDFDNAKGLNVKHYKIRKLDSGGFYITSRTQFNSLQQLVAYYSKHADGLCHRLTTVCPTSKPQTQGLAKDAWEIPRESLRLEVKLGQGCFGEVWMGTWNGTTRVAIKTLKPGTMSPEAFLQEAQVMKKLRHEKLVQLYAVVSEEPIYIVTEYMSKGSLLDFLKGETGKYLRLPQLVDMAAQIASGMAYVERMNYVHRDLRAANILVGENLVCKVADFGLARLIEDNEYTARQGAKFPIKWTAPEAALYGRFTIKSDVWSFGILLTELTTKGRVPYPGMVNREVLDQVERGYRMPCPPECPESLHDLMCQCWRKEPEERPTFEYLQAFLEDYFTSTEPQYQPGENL
Chain of Serine/threonine-protein kinase WNK2 (Homo sapiens) (Q9Y3S1 whole entry): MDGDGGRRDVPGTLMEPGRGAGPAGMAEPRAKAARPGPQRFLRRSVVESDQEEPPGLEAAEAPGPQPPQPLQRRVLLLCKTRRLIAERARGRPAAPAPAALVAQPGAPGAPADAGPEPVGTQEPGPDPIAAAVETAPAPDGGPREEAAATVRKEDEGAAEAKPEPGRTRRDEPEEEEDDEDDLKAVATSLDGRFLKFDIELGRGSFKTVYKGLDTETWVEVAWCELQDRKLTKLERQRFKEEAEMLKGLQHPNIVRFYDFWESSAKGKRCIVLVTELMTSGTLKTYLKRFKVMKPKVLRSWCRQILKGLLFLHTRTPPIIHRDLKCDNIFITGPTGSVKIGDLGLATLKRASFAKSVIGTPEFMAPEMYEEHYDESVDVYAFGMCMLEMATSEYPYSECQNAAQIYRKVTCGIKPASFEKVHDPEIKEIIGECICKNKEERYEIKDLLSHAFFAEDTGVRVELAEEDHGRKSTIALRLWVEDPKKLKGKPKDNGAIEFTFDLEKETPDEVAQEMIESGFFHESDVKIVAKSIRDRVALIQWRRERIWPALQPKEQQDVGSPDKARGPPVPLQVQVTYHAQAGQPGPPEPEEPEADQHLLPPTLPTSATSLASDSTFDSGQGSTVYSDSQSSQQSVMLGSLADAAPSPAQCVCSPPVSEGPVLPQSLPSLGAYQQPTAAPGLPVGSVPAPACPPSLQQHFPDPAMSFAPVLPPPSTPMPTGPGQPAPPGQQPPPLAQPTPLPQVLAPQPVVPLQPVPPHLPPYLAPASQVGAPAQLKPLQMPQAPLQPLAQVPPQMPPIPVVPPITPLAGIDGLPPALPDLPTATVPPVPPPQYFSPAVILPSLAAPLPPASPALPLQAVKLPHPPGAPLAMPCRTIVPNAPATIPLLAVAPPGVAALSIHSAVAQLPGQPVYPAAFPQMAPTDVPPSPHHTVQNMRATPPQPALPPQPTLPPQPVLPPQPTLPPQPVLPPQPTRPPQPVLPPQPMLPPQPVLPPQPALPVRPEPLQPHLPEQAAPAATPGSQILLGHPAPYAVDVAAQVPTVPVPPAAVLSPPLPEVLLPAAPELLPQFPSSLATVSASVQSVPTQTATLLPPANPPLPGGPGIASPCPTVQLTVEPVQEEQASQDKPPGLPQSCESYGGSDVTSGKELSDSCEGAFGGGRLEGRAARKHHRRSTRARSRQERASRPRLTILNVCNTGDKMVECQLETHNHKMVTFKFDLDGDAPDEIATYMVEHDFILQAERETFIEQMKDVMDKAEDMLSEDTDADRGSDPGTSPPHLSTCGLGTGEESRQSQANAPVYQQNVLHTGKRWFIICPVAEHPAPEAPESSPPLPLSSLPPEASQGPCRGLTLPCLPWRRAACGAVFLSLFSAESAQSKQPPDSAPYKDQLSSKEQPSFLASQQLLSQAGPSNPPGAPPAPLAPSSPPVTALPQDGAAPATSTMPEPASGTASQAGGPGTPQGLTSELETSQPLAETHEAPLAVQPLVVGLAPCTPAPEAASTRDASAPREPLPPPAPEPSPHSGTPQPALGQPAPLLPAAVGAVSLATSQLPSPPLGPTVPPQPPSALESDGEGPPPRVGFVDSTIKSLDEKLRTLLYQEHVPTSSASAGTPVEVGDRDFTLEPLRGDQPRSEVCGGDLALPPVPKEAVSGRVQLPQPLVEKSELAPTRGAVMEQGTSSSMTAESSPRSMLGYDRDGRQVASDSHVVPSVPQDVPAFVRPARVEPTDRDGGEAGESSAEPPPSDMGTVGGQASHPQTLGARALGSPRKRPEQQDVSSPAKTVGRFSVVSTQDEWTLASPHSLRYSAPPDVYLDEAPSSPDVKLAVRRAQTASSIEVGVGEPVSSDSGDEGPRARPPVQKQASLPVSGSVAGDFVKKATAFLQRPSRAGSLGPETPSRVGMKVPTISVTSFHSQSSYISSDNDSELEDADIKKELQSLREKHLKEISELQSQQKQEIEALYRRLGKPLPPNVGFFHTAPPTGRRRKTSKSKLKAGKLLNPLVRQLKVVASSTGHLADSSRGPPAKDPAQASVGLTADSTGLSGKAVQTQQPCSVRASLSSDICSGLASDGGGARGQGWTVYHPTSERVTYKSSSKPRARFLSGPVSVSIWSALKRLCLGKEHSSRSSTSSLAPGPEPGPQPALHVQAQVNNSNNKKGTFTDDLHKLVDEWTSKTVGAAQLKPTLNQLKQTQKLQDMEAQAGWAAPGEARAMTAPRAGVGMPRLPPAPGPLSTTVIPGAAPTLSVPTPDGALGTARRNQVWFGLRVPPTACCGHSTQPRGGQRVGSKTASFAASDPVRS
Chain of Serine/threonine-protein kinase pim-2 (Q9P1W9 whole entry, looked up): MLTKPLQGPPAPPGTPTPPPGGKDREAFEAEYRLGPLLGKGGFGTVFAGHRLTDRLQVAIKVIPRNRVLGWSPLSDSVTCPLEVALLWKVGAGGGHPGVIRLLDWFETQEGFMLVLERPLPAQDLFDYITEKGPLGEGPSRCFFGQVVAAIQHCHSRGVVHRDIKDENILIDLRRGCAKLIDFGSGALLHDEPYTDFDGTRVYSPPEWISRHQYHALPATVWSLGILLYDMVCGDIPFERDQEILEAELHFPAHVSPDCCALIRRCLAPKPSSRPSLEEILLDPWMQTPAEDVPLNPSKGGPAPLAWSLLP

On to `C=CC(=O)Nc1cccc(C(=O)Nc2ccc(Nc3cc(-c4[nH]c(SC)nc4C)ccn3)cc2)c1`, for which the % of control worked out at 89% in test [1] (at 1 µM) and 82% in test [1] (at 5 µM).

With `CCN(CC)CCCCNc1ncc2cc(-c3cc(OC)cc(OC)c3)c(NC(=O)NC(C)(C)C)nc2n1`, in test [2], the % of control amounted to 100%.

In the case of `COc1cc(Nc2nc(C)cc(-c3cnn4nc(OC)ccc34)n2)cc(C(F)(F)F)c1`, in [3], the % of control worked out at 100%.

As for `Cc1cc(C)cc([C@@H]2c3cc(C)ccc3NC(=O)CN2C(=O)c2ccc(Br)s2)c1`, the % of inhibition in [4] is -11%.

As to `C=CC(=O)Nc1cc(-n2c(=O)ccc3cnc4ccc(-c5ccc(NS(C)(=O)=O)cc5)cc4c32)ccc1C`, the % of control in test [5] (at 1 µM) and in [5] (at 10 µM) was 100% in each case.

The compound `CNC(=O)Nc1ccc(-c2nc(N3CC4CCC(C3)O4)c3cnn(C4CCC5(CC4)OCCO5)c3n2)cc1` returned a % of control in [6] of 89%.

On to `CC[C@@H]1[C@H](F)C(=O)N[C@@H]1COc1nccc2cc(C(N)=O)c(OC)cc12` [ZIMLOVISERTIB], for which, in test [7], the % of inhibition was -8.1%.

Consider `COc1cc(N(C)c2ccnc3ccc(C(F)(F)F)cc23)cc(OC)c1OC`, for which the figures for the % binding in test [8] and in [9] were 85% and 100%, respectively.

`CN(C(=O)c1cnn2cccnc12)c1cc2c(cc1N1CCOCC1)C(=O)N(C[C@@H](F)C(C)(C)O)C2`: the dTM in [10] was -0.3 K.

As to `CN1Cc2nccc(-c3cn(C)nc3-c3ccc(F)cc3)c2C1=O`, the % of inhibition in test [11] is -2%.

In test [12], `C=CC(=O)Nc1ccc(C(=O)Nc2[nH]nc3c2CN(C(=O)N[C@H](CN(C)C)c2ccccc2)C3(C)C)cc1` registered a % of engagement of 3.8%.
